The assay deals with c-Myc. Briefly: c-Myc immunofluorescence assay. The assay is classed as cell-based, human. The following applies: A549 cells, 24 hours, anti-c-Myc immunofluorescence. In a few lines:
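A549 NSCLC cells grown 48 h, then treated 24 h with increasing compound concentrations; fixed in 4% paraformaldehyde, stained with anti-c-Myc antibody plus fluorescent secondary and DAPI. Per-cell c-Myc fluorescence quantified by high-content imaging at 20×; dose-response fitted by logistic regression to give EC50.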
Consider `C#CCCC1(CCN2CCC(CNC(=O)C3CCN(c4nc(-c5ccc(OC)cc5)no4)CC3)C2)N=N1` (stereo not drawn) [Compound 286, N-((1-(2-(3-(but-3-yn-1-yl)-3H-diazirin-3-yl)ethyl)pyrrolidin-3-yl)methyl)-1-(3-(4-methoxyphenyl)-1,2,4-oxadiazol-5-yl)piperidine-4-carboxamide], for which the “Myc Efficacy (−LogEC50)” value is “++ (++ ≥5 and <6)”. For the molecule `C#CCCC1(CCOc2ccc(-c3noc(N4CCC(C(=O)NCC5CCN(Cc6ccc(C)cc6)C5)CC4)n3)cc2)N=N1` (stereo not drawn) [Compound 287, 1-(3-(4-(2-(3-(but-3-yn-1-yl)-3H-diazirin-3-yl)ethoxy)phenyl)-1,2,4-oxadiazol-5-yl)-N-((1-(4-methylbenzyl)pyrrolidin-3-yl)methyl)piperidine-4-carboxamide], the “Myc Efficacy (−LogEC50)” value is listed as “+++ (+++ ≥6)”. For `C#CCCC1(CCOc2cccc(-c3noc(N4CCC(C(=O)NCC5CCN(Cc6ccc(C)cc6)C5)CC4)n3)c2)N=N1` (stereo not drawn) [Compound 288, 1-(3-(3-(2-(3-(but-3-yn-1-yl)-3H-diazirin-3-yl)ethoxy)phenyl)-1,2,4-oxadiazol-5-yl)-N-((1-(4-methylbenzyl)pyrrolidin-3-yl)methyl)piperidine-4-carboxamide], the “Myc Efficacy (−LogEC50)” value was “++ (++ ≥5 and <6)”. Consider `COc1ccc(-c2noc(N3CCC(C(=O)NC4CCOC5(CCCCC5)C4)CC3)n2)cc1` (stereo not drawn) [Compound 289, 1-(3-(4-methoxyphenyl)-1,2,4-oxadiazol-5-yl)-N-(1-oxaspiro[5.5]undecan-4-yl)piperidine-4-carboxamide], for which the “Myc Efficacy (−LogEC50)” value was “+ (+ >3 and <5)”.

Turning to `COc1ccc(-c2noc(N3CCC(C(=O)NC4COC5(CCCCC5)C4)CC3)n2)cc1` (stereo not drawn) [Compound 290, 1-(3-(4-methoxyphenyl)-1,2,4-oxadiazol-5-yl)-N-(1-oxaspiro[4.5]decan-3-yl)piperidine-4-carboxamide], the “Myc Efficacy (−LogEC50)” value is “+ (+ >3 and <5)”. With `COc1ccc(-c2noc(N3CCC(C(=O)NC4(C5CC5)CCOCC4)CC3)n2)cc1` [Compound 291, N-(4-cyclopropyltetrahydro-2H-pyran-4-yl)-1-(3-(4-methoxyphenyl)-1,2,4-oxadiazol-5-yl)piperidine-4-carboxamide] the entry was “+ (+ >3 and <5)”; with `COc1ccc(-c2noc(N3CCC(C(=O)NC4(C5CCCCC5)CC4)CC3)n2)cc1` [Compound 292, N-(1-cyclohexylcyclopropyl)-1-(3-(4-methoxyphenyl)-1,2,4-oxadiazol-5-yl)piperidine-4-carboxamide], “+ (+ >3 and <5)”. With `COc1ccc(-c2noc(N3CCC(C(=O)NC[C@@H]4CCCC[C@H]4O)CC3)n2)cc1` [Compound 293, N-(((1S,2R)-2-hydroxycyclohexyl)methyl)-1-(3-(4-methoxyphenyl)-1,2,4-oxadiazol-5-yl)piperidine-4-carboxamide] the entry was “+ (+ >3 and <5)”; with `COc1ccc(-c2noc(N3CCC(C(=O)NC4CC(O)C4(C)C)CC3)n2)cc1` (stereo not drawn) [Compound 294, N-(3-hydroxy-2,2-dimethylcyclobutyl)-1-(3-(4-methoxyphenyl)-1,2,4-oxadiazol-5-yl)piperidine-4-carboxamide], “+ (+ >3 and <5)”. With `COc1ccc(-c2noc(N3CCC(C(=O)N[C@H]4[C@@H]5CN(C)C[C@@H]54)CC3)n2)cc1` [Compound 295, 1-(3-(4-methoxyphenyl)-1,2,4-oxadiazol-5-yl)-N-((1R,5S,6s)-3-methyl-3-azabicyclo[3.1.0]hexan-6-yl)piperidine-4-carboxamide] the entry was “+ (+ >3 and <5)”. Consider `COc1ccc(-c2noc(N3CCC(C(=O)NCC4(N(C)C)Cc5ccccc5C4)CC3)n2)cc1` [Compound 296, N-((2-(dimethylamino)-2,3-dihydro-1H-inden-2-yl)methyl)-1-(3-(4-methoxyphenyl)-1,2,4-oxadiazol-5-yl)piperidine-4-carboxamide], for which the “Myc Efficacy (−LogEC50)” value was “+ (+ >3 and <5)”. Regarding `COc1ccc(-c2noc(N3CCC(C(=O)NC(C)C(C)(C)O)CC3)n2)cc1` (stereo not drawn) [Compound 297, N-(3-hydroxy-3-methylbutan-2-yl)-1-(3-(4-methoxyphenyl)-1,2,4-oxadiazol-5-yl)piperidine-4-carboxamide], the “Myc Efficacy (−LogEC50)” value is “+ (+ >3 and <5)”. With `COc1ccc(-c2noc(N3CCC(C(=O)NC4(c5nc(C)cs5)CCC4)CC3)n2)cc1` [Compound 298, 1-(3-(4-methoxyphenyl)-1,2,4-oxadiazol-5-yl)-N-(1-(4-methylthiazol-2-yl)cyclobutyl)piperidine-4-carboxamide] the entry was “+ (+ >3 and <5)”; with `COc1ccc(-c2noc(N3CCC(C(=O)NC(CO)CC(F)(F)F)CC3)n2)cc1` (stereo not drawn) [Compound 299, 1-(3-(4-methoxyphenyl)-1,2,4-oxadiazol-5-yl)-N-(4,4,4-trifluoro-1-hydroxybutan-2-yl)piperidine-4-carboxamide], “+ (+ >3 and <5)”; with `COc1ccc(-c2noc(N3CCC(C(=O)NCc4cccc(OC(C)C)c4)CC3)n2)cc1` [Compound 300, N-(3-isopropoxybenzyl)-1-(3-(4-methoxyphenyl)-1,2,4-oxadiazol-5-yl)piperidine-4-carboxamide], “++ (++ ≥5 and <6)”. With `COc1ccc(-c2noc(N3CCC(C(=O)NCC4CCCc5cccnc54)CC3)n2)cc1` (stereo not drawn) [Compound 301, 1-(3-(4-methoxyphenyl)-1,2,4-oxadiazol-5-yl)-N-((5,6,7,8-tetrahydroquinolin-8-yl)methyl)piperidine-4-carboxamide] the entry was “+ (+ >3 and <5)”; with `COc1ccc(-c2noc(N3CCC(C(=O)NC4CCN(C)c5ccccc54)CC3)n2)cc1` (stereo not drawn) [Compound 302, 1-(3-(4-methoxyphenyl)-1,2,4-oxadiazol-5-yl)-N-(1-methyl-1,2,3,4-tetrahydroquinolin-4-yl)piperidine-4-carboxamide], “+ (+ >3 and <5)”. With `COc1ccc(-c2noc(N3CCC(C(=O)NCC4OCCc5ccccc54)CC3)n2)cc1` (stereo not drawn) [Compound 303, N-(isochroman-1-ylmethyl)-1-(3-(4-methoxyphenyl)-1,2,4-oxadiazol-5-yl)piperidine-4-carboxamide] the entry was “+ (+ >3 and <5)”. Turning to `COc1ccc(-c2noc(N3CCC(C(=O)NCC(c4ccccc4)N(C)C)CC3)n2)cc1` (stereo not drawn) [Compound 304, N-(2-(dimethylamino)-2-phenylethyl)-1-(3-(4-methoxyphenyl)-1,2,4-oxadiazol-5-yl)piperidine-4-carboxamide], the “Myc Efficacy (−LogEC50)” value was “+ (+ >3 and <5)”. With `COc1ccc(-c2noc(N3CCC(C(=O)NCC(O)Cc4ccccc4)CC3)n2)cc1` (stereo not drawn) [Compound 305, N-(2-hydroxy-3-phenylpropyl)-1-(3-(4-methoxyphenyl)-1,2,4-oxadiazol-5-yl)piperidine-4-carboxamide] the entry was “+ (+ >3 and <5)”. With `COc1ccc(-c2noc(N3CCC(C(=O)Nc4ccc(C5COC5)cc4)CC3)n2)cc1` [Compound 306, 1-(3-(4-methoxyphenyl)-1,2,4-oxadiazol-5-yl)-N-(4-(oxetan-3-yl)phenyl)piperidine-4-carboxamide] the entry was “+ (+ >3 and <5)”; with `COc1ccc(-c2noc(N3CCC(C(=O)NCC4(c5ccc(F)cc5F)CC4)CC3)n2)cc1` [Compound 307, N-((1-(2,4-difluorophenyl)cyclopropyl)methyl)-1-(3-(4-methoxyphenyl)-1,2,4-oxadiazol-5-yl)piperidine-4-carboxamide], “+ (+ >3 and <5)”; with `COc1ccc(-c2noc(N3CCC(C(=O)NCc4ccc(OC)c(C(F)(F)F)c4)CC3)n2)cc1` [Compound 308, N-(4-methoxy-3-(trifluoromethyl)benzyl)-1-(3-(4-methoxyphenyl)-1,2,4-oxadiazol-5-yl)piperidine-4-carboxamide], “+ (+ >3 and <5)”. Take `COc1ccc(-c2noc(N3CCC(C(=O)NCCc4cccc(C(F)(F)F)n4)CC3)n2)cc1` [Compound 309, 1-(3-(4-methoxyphenyl)-1,2,4-oxadiazol-5-yl)-N-(2-(6-(trifluoromethyl)pyridin-2-yl)ethyl)piperidine-4-carboxamide]: the “Myc Efficacy (−LogEC50)” value is given as “− (− ≤3)”.

Consider `COc1ccc(-c2noc(N3CCC(C(=O)NC(C)Cc4c[nH]c5ccccc45)CC3)n2)cc1` (stereo not drawn) [Compound 310, N-(1-(1H-indol-3-yl)propan-2-yl)-1-(3-(4-methoxyphenyl)-1,2,4-oxadiazol-5-yl)piperidine-4-carboxamide], for which the “Myc Efficacy (−LogEC50)” value is “+ (+ >3 and <5)”. For the molecule `COc1ccc(-c2noc(N3CCC(C(=O)NCc4cc(C)ccc4F)CC3)n2)cc1` [Compound 311, N-(2-fluoro-5-methylbenzyl)-1-(3-(4-methoxyphenyl)-1,2,4-oxadiazol-5-yl)piperidine-4-carboxamide], the “Myc Efficacy (−LogEC50)” value is reported as “− (− ≤3)”. In the case of `COc1ccc(-c2noc(N3CCC(C(=O)NC4CCC5(CCOCC5)CC4)CC3)n2)cc1` [Compound 312, 1-(3-(4-methoxyphenyl)-1,2,4-oxadiazol-5-yl)-N-(3-oxaspiro[5.5]undecan-9-yl)piperidine-4-carboxamide], the “Myc Efficacy (−LogEC50)” value was “+ (+ >3 and <5)”. As for `COc1ccc(-c2noc(N3CCC(C(=O)NC(C)C4CCCCO4)CC3)n2)cc1` (stereo not drawn) [Compound 313, 1-(3-(4-methoxyphenyl)-1,2,4-oxadiazol-5-yl)-N-(1-(tetrahydro-2H-pyran-2-yl)ethyl)piperidine-4-carboxamide], the “Myc Efficacy (−LogEC50)” value is recorded as “− (− ≤3)”. As for `COc1ccc(-c2noc(N3CCC(C(=O)NCCN(C)C4CC4)CC3)n2)cc1` [Compound 314, N-(2-(cyclopropyl(methyl)amino)ethyl)-1-(3-(4-methoxyphenyl)-1,2,4-oxadiazol-5-yl)piperidine-4-carboxamide], the “Myc Efficacy (−LogEC50)” value is “+ (+ >3 and <5)”. With `COc1ccc(-c2noc(N3CCC(C(=O)N[C@@H](CCO)C(C)C)CC3)n2)cc1` [Compound 315, (S)-N-(1-hydroxy-4-methylpentan-3-yl)-1-(3-(4-methoxyphenyl)-1,2,4-oxadiazol-5-yl)piperidine-4-carboxamide] the entry was “+ (+ >3 and <5)”.

These data come from US12344600B2, “c-Myc mRNA translation modulators and uses thereof in the treatment of cancer” (Anima Biotech Inc., priority 2022, dated 2025).
